Reference: ChEMBL document CHEMBL1153026, “Cytotoxic 3,4-seco-cycloartane triterpenes from Gardenia sootepensis” (J Nat Prod, 2009)
≈ marks a conversion by molar mass, not a printed value.

Assays:
[1] = tested on: BT-474; experiment: Cytotoxicity against human BT474 cells after 3 days by MTT assay; assay type: functional, cell-based; conditions: BT-474, 72 h
[2] = Cytotoxicity against human KATO III cells after 3 days by MTT assay; assay type: functional, cell-based, KATO III cell; conditions: 72 h
[3] = tested on: SW-620; experiment: Cytotoxicity against human SW620 cells after 3 days by MTT assay; assay type: functional, cell-based; conditions: SW-620, 72 h
[4] = tested on: HepG2; experiment: Cytotoxicity against human HepG2 cells after 3 days by MTT assay; assay type: functional, cell-based; conditions: HepG2, 72 h
[5] = Cytotoxicity against human ChaGo cells after 3 days by MTT assay; assay type: functional, cell-based; conditions: 72 h

COc1cccc2c1C(=O)c1c(O)c3c(c(O)c1C2=O)C[C@@](O)(C(=O)CO)C[C@@H]3O[C@H]1C[C@H](N)[C@H](O)[C@H](C)O1 [DOXORUBICIN]
IC50 [1]: 8.92 µg/mL (≈ 16.4 µM)
IC50 [2]: 5.45 µg/mL (≈ 10 µM)
IC50 [3]: > 10 µg/mL
IC50 [4]: 3.36 µg/mL (≈ 6.18 µM)
IC50 [5]: 3.98 µg/mL (≈ 7.32 µM)

C=C1C(=O)O[C@H]2C[C@@H]3[C@@]4(CC[C@]5(C)[C@H]([C@@H](C)CC/C=C(\C)C=O)CC[C@@]35C)C[C@]4(CCC(=O)OC)[C@@H]12 [CORONALOLIDE METHYL ESTER]
IC50 [1]: > 10 µg/mL
IC50 [2]: 8.64 µg/mL (≈ 17.4 µM)
IC50 [3]: 6.19 µg/mL (≈ 12.5 µM)
IC50 [4]: 6.8 µg/mL (≈ 13.7 µM)
IC50 [5]: > 10 µg/mL

C=C(CO)[C@@H]1CC[C@@H]2[C@]3(CC[C@]4(C)[C@@H]([C@H](C)CCC=C(C)C)CC[C@@]24C)C[C@]13CCC(=O)OC [SOOTEPIN C]
IC50 [1]: > 10 µg/mL
IC50 [2]: 7.79 µg/mL (≈ 16.5 µM)
IC50 [3]: > 10 µg/mL
IC50 [4]: 3.49 µg/mL (≈ 7.41 µM)
IC50 [5]: > 10 µg/mL

C=C1C(=O)O[C@@H]2C[C@@H]3[C@]4(CC[C@]5(C)[C@@H]([C@H](C)CCC=C(C)C)CC[C@@]35C)C[C@]4(CCC(=O)OC)[C@H]12 [TUBIFEROLIDE METHYL ESTER]
IC50 [1]: 5.33 µg/mL (≈ 11 µM)
IC50 [2]: 4.9 µg/mL (≈ 10.2 µM)
IC50 [3]: 5.78 µg/mL (≈ 12 µM)
IC50 [4]: 3.41 µg/mL (≈ 7.06 µM)
IC50 [5]: 4.08 µg/mL (≈ 8.45 µM)

C=C(C)[C@@H]1CC[C@@H]2[C@]3(CC[C@]4(C)[C@@H]([C@H](C)CCC=C(C)C)CC[C@@]24C)C[C@]13CCC(=O)O [SOOTEPIN E]
IC50 [1]: 6.07 µg/mL (≈ 13.8 µM)
IC50 [2]: 1.91 µg/mL (≈ 4.33 µM)
IC50 [3]: 4.22 µg/mL (≈ 9.58 µM)
IC50 [4]: 3.14 µg/mL (≈ 7.12 µM)
IC50 [5]: 5.2 µg/mL (≈ 11.8 µM)

C=C(CO)[C@@H]1CC[C@H]2[C@]3(CC[C@]4(C)[C@@H]([C@H](C)CCC=C(C)C)CC[C@@]24C)C[C@]13CCC(=O)O [SECAUBRYENOL]
IC50 [1]: > 10 µg/mL
IC50 [2]: > 10 µg/mL
IC50 [3]: > 10 µg/mL
IC50 [4]: > 10 µg/mL
IC50 [5]: > 10 µg/mL

C=C1C(=O)O[C@@H]2C[C@@H]3[C@]4(CC[C@]5(C)[C@@H]([C@H](C)CC/C=C(\C)CO)CC[C@@]35C)C[C@]4(CCC(=O)OC)[C@H]12 [SOOTEPIN A]
IC50 [1]: 5.92 µg/mL (≈ 11.9 µM)
IC50 [2]: 2.1 µg/mL (≈ 4.21 µM)
IC50 [3]: 1.8 µg/mL (≈ 3.61 µM)
IC50 [4]: 2.9 µg/mL (≈ 5.82 µM)
IC50 [5]: 3.97 µg/mL (≈ 7.96 µM)

C=C1C(=O)O[C@@H]2C[C@@H]3[C@]4(CC[C@]5(C)[C@@H]([C@H](C)CC/C=C(\C)C=O)CC[C@@]35C)C[C@]4(CCC(=O)O)[C@H]12 [CORONALOLIDE]
IC50 [1]: 6.59 µg/mL (≈ 13.7 µM)
IC50 [2]: 5.85 µg/mL (≈ 12.1 µM)
IC50 [3]: 4.98 µg/mL (≈ 10.3 µM)
IC50 [4]: 6.41 µg/mL (≈ 13.3 µM)
IC50 [5]: 5.42 µg/mL (≈ 11.2 µM)

C=C1C(=O)O[C@@H]2C[C@@H]3[C@]4(CC[C@]5(C)[C@@H]([C@H](C)CCC=C(C)C)CC[C@@]35C)C[C@]4(CCC(=O)O)[C@H]12 [SOOTEPIN B]
IC50 [1]: 4.98 µg/mL (≈ 10.6 µM)
IC50 [2]: 3.68 µg/mL (≈ 7.85 µM)
IC50 [3]: 5.57 µg/mL (≈ 11.9 µM)
IC50 [4]: 5.86 µg/mL (≈ 12.5 µM)
IC50 [5]: 5.24 µg/mL (≈ 11.2 µM)

C=C(CO)[C@@H]1CC[C@@H]2[C@]3(CC[C@]4(C)[C@@H]([C@H](C)CC/C=C(\C)C=O)CC[C@@]24C)C[C@]13CCC(=O)OC [SOOTEPIN D]
IC50 [1]: > 10 µg/mL
IC50 [2]: 7.35 µg/mL (≈ 15.2 µM)
IC50 [3]: > 10 µg/mL
IC50 [4]: > 10 µg/mL
IC50 [5]: > 10 µg/mL
